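Assay format: 96-well plates, 48-hour exposure. At the GI50, growth is halved.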 The source made the active and inactive calls. Rule as the data show it: active = GI50 up to about 1.1 µM and inactive = higher.
Key:
Assay in all cases: inhibition of tumour cell growth, NCI panel, 48 h
UO-31 = tested on: UO-31
Malme-3M = tested on: Malme-3M
SF-539 = tested on: SF-539
SW-620 = tested on: SW-620
NCI-H460 = tested on: NCI-H460
LOX IMVI = tested on: LOX IMVI
ACHN = tested on: ACHN
OVCAR-5 = tested on: OVCAR-5
HL-60 = tested on: HL-60
A549 = tested on: A549
T47D = tested on: T47D
MDA-MB-435 = tested on: MDA-MB-435
A498 = tested on: A498
CCRF-CEM = tested on: CCRF-CEM
RPMI-8226 = tested on: RPMI-8226
MOLT-4 = tested on: MOLT-4
NCI-H23 = tested on: NCI-H23
SNB-75 = tested on: SNB-75
K562 = tested on: K562
NCI-H226 = tested on: NCI-H226

Measured: GI50

Clc1c2nc3ccccc3c-2[nH]c2ccccc12
inactive: UO-31 7.98 µM | Malme-3M 30.7 µM | SF-539 13.7 µM | SW-620 8.83 µM | NCI-H460 27.2 µM | LOX IMVI 11.7 µM | ACHN 21.3 µM | OVCAR-5 > 100 µM | HL-60 15.6 µM | A549 34 µM | T47D 17.7 µM | MDA-MB-435 5.11 µM | A498 43 µM | CCRF-CEM 19.2 µM | RPMI-8226 7.96 µM | MOLT-4 2.9 µM | NCI-H23 11.6 µM | SNB-75 39.9 µM

COC(=O)c1c(C)c2c(c(C)c1O)OC(=O)c1c(C)cc(O)c(C=O)c1O2
inactive: Malme-3M > 100 µM | K562 > 100 µM | NCI-H226 > 100 µM | SF-539 > 100 µM | SW-620 > 100 µM | NCI-H460 > 100 µM | ACHN > 100 µM | OVCAR-5 > 100 µM | HL-60 > 100 µM | A549 > 100 µM | T47D > 100 µM | MDA-MB-435 > 100 µM | CCRF-CEM > 100 µM | RPMI-8226 > 100 µM | MOLT-4 > 100 µM | NCI-H23 > 100 µM

COc1ccc(CC2OC3(CCCCC3)CC3CCCCN32)cc1 (stereo unspecified)
inactive: UO-31 > 100 µM | Malme-3M > 100 µM | K562 27.1 µM | NCI-H226 53 µM | SW-620 39.4 µM | NCI-H460 > 100 µM | LOX IMVI 48.3 µM | ACHN > 100 µM | OVCAR-5 > 100 µM | HL-60 > 100 µM | A549 > 100 µM | T47D > 100 µM | MDA-MB-435 50 µM | CCRF-CEM 47 µM | RPMI-8226 23.4 µM | MOLT-4 75.9 µM | NCI-H23 > 100 µM | SNB-75 91.2 µM

CS(=O)(=O)OC1CN2CCC1CC2 (stereo unspecified)
inactive: UO-31 > 100 µM | Malme-3M > 100 µM | K562 > 100 µM | SW-620 > 100 µM | NCI-H460 > 100 µM | LOX IMVI > 100 µM | ACHN > 100 µM | OVCAR-5 > 100 µM | HL-60 > 100 µM | A549 > 100 µM | T47D > 100 µM | MDA-MB-435 > 100 µM | A498 > 100 µM | CCRF-CEM > 100 µM | RPMI-8226 > 100 µM | MOLT-4 > 100 µM | NCI-H23 > 100 µM | SNB-75 > 100 µM

Cc1ccc(-c2cn3c(nc4ccccc43)c(/C=C/c3ccco3)n2)cc1
inactive: UO-31 > 100 µM | Malme-3M 65.6 µM | K562 37.7 µM | NCI-H226 > 100 µM | SF-539 > 100 µM | SW-620 47.6 µM | NCI-H460 58.1 µM | LOX IMVI 69.2 µM | ACHN > 100 µM | OVCAR-5 > 100 µM | HL-60 22.2 µM | A549 > 100 µM | T47D 71.4 µM | MDA-MB-435 29.2 µM | A498 > 100 µM | RPMI-8226 21 µM | NCI-H23 37 µM | SNB-75 > 100 µM

COc1cc(C2SC(=N)Nc3c2c(C)nn3C(=O)c2ccc(Cl)cc2)ccc1O (stereo unspecified)
inactive: Malme-3M > 10 µM | K562 > 10 µM | NCI-H226 > 10 µM | SF-539 > 10 µM | SW-620 > 10 µM | NCI-H460 > 10 µM | LOX IMVI > 10 µM | ACHN > 10 µM | OVCAR-5 > 10 µM | HL-60 > 10 µM | A549 > 10 µM | T47D > 10 µM | MDA-MB-435 > 10 µM | CCRF-CEM > 10 µM | RPMI-8226 > 10 µM | MOLT-4 > 10 µM | NCI-H23 > 10 µM | SNB-75 > 10 µM

COC(=O)C1CCC(=O)N1C(c1cc(OC)c(OC)c(OC)c1)c1cc(OC)c(OC)c(OC)c1 (stereo unspecified)
inactive: UO-31 > 100 µM | K562 > 100 µM | SF-539 > 100 µM | SW-620 > 100 µM | NCI-H460 > 100 µM | LOX IMVI > 100 µM | ACHN > 100 µM | OVCAR-5 > 100 µM | HL-60 > 100 µM | A549 > 100 µM | T47D > 100 µM | MDA-MB-435 > 100 µM | A498 > 100 µM | RPMI-8226 > 100 µM | MOLT-4 > 100 µM | SNB-75 > 100 µM

O=C(O)CCC(NC(=O)c1ccc(Nc2nc3ccccc3nc2C(=O)O)cc1)C(=O)O (stereo unspecified)
inactive: UO-31 > 100 µM | Malme-3M > 100 µM | K562 > 100 µM | SF-539 > 100 µM | ACHN > 100 µM | OVCAR-5 > 100 µM | HL-60 > 100 µM | A549 > 100 µM | T47D > 100 µM | MDA-MB-435 > 100 µM | CCRF-CEM > 100 µM | RPMI-8226 > 100 µM | MOLT-4 > 100 µM | NCI-H23 > 100 µM | SNB-75 > 100 µM

Cc1ccc(C)c(N2C(=O)C(=O)c3c(C)ccc(C)c32)c1
inactive: UO-31 22.9 µM | Malme-3M 20.7 µM | K562 22 µM | NCI-H226 27.7 µM | SF-539 16.7 µM | SW-620 27.7 µM | NCI-H460 37.2 µM | LOX IMVI 17.4 µM | ACHN 17.1 µM | OVCAR-5 57.1 µM | HL-60 35.6 µM | A549 25.7 µM | T47D 11.6 µM | MDA-MB-435 21.1 µM | MOLT-4 22.3 µM | NCI-H23 21 µM | SNB-75 34.9 µM

O=C(Nc1ccccc1)c1nn(-c2cc(S(=O)(=O)O)c([N+](=O)[O-])cc2Cl)[n+](-c2cc(S(=O)(=O)[O-])c([N+](=O)[O-])cc2Cl)n1
inactive: UO-31 > 100 µM | Malme-3M > 100 µM | K562 > 100 µM | NCI-H226 > 100 µM | SF-539 > 100 µM | SW-620 > 100 µM | NCI-H460 > 100 µM | LOX IMVI 38.3 µM | ACHN > 100 µM | OVCAR-5 > 100 µM | HL-60 40.8 µM | A549 > 100 µM | T47D > 100 µM | MDA-MB-435 > 100 µM | CCRF-CEM > 100 µM | RPMI-8226 > 100 µM | MOLT-4 > 100 µM | NCI-H23 > 100 µM | SNB-75 > 100 µM

CC(C)(Sc1cc(C(C)(C)C)c(O)c(C(C)(C)C)c1)Sc1cc(C(C)(C)C)c(O)c(C(C)(C)C)c1 [PROBUCOL]
inactive: UO-31 > 100 µM | Malme-3M > 100 µM | K562 1.81 µM | SF-539 > 100 µM | SW-620 > 100 µM | NCI-H460 > 100 µM | LOX IMVI > 100 µM | ACHN > 100 µM | OVCAR-5 > 100 µM | HL-60 1.49 µM | A549 > 100 µM | T47D > 100 µM | MDA-MB-435 > 100 µM | A498 > 100 µM | CCRF-CEM > 100 µM | RPMI-8226 > 100 µM | NCI-H23 > 100 µM | SNB-75 > 100 µM
